Experimental data taken from PMC5011342, “A high throughput drug screening assay to identify compounds that promote oligodendrocyte differentiation using acutely dissociated and purified oligodendrocyte precursor cells” (BMC Research Notes, 2016).
Where two headings read alike, the source gives them in different places.

Experiments:
[1] = tested on: acutely dissociated and purified rat OPCs; experiment: Acute OL differentiation assay (MBP expression/cell, immunofluorescent image quantification); format: cell-based
Summary of the method: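 Oligodendrocyte precursor cells were enriched from P6-P7 Sprague–Dawley rat brains by immunopanning (RAN-2 and GalC depletion, O4 selection), plated at 5000 cells/well in serum-free, mitogen-free differentiation media on PDL/laminin 96-well view plates, centrifuged at 200×g, and pre-incubated 1–2 h before test compounds were added in quadruplicate. On DIV4, cells were fixed, stained for MBP and DAPI, imaged automatically, and MBP expression per cell was quantified.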

[2] = tested on: Rat OPCs; conditions: ● = hit reported; cited from earlier work
[3] = tested on: expanded OPCs; experiment: cells; conditions: for viability at 0.1 µM / viability at 1 µM / viability at 10 µM: Rattus norvegicus, 72 h; for 0.1 µM (% DMSO) / 1 µM (% DMSO) / 10 µM (% DMSO): alamarBlue viability of expanded OPCs, relative to DMSO control; for 0.1 µM (% DMSO): compound at 0.1 µM; for 1 µM (% DMSO): compound at 1 µM; for 10 µM (% DMSO): compound at 10 µM
Summary of the method: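 Expanded OPCs seeded at 10,000 cells/well in differentiation media, then exposed to NCC library compounds at 10, 1 and 0.1 µM (quadruplicate, 0.1% DMSO) for three days. Viability read as alamarBlue fluorescence (560/590 nm) after 4 h at 37 °C; tunicamycin 5 ng/ml served as toxicity control.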

[4] = Rattus norvegicus, test compound at 2 uM, NCC library screen, sheet "All OLga data", relative to quetiapine, read-out: 2 uM (% Quet)
[5] = read-out: 0.1 µM (% DMSO), alamarBlue viability, NCC library compound at 0.1 µM, sheet "All Tox data"
[6] = read-out: 1 µM (% DMSO), alamarBlue viability, NCC library compound at 1 µM, sheet "All Tox data"
[7] = read-out: 10 µM (% DMSO), alamarBlue viability, NCC library compound at 10 µM, sheet "All Tox data"
[8] = Rattus norvegicus, test compound at 10 uM, NCC library screen, sheet "All OLga data", relative to quetiapine, read-out: 10 uM (% Quet)
[9] = Rattus norvegicus, test compound at 2 uM, MBP expression relative to quetiapine, NCC library screen, sheet "All OLga data", read-out: 2 uM (% Quet)
[10] = Rattus norvegicus, test compound at 10 uM, MBP expression relative to quetiapine, NCC library screen, sheet "All OLga data", read-out: 10 uM (% Quet)
[11] = Rattus norvegicus, 2 uM test compound, relative to quetiapine, sheet "All OLga data", read-out: OL differentiation, 2 uM (% Quet)
[12] = Rattus norvegicus, 10 uM test compound, relative to quetiapine, sheet "All OLga data", read-out: OL differentiation, 10 uM (% Quet)
[13] = read-out: 0.1 µM (% DMSO), alamarBlue viability of expanded OPCs, compound at 0.1 µM, sheet All Tox data
[14] = read-out: 1 µM (% DMSO), alamarBlue viability of expanded OPCs, compound at 1 µM, sheet All Tox data
[15] = read-out: 10 µM (% DMSO), alamarBlue viability of expanded OPCs, compound at 10 µM, sheet All Tox data

Compound	activation at 2 µM [1, 4]	viability at 0.1 µM [3, 5]	viability at 1 µM [3, 6]	viability at 10 µM [3, 7]	activation at 10 µM [1, 8]	0.1 µM (% DMSO) [3]	1 µM (% DMSO) [3]	10 µM (% DMSO) [3]	further results
OCc1cc(C(O)CNCCCCCCOCCCCc2ccccc2)ccc1O (centres unmarked) [Salmeterol, reference compound]	-32.4%	115%	108%	9.3%	–	–	–	–	activation at 0.4 µM ([1]; Rattus norvegicus, test compound at 0.4 uM, NCC library screen, sheet "All OLga data", relative to quetiapine, read-out: 0.4 uM (% Quet)): 55.3%; EC50 ([1]; Rattus norvegicus, average EC50 for induction of OL differentiation from independent biological replicates, eight concentrations): 400 nM; hit in OL differentiation assay, MRF-TMC ([1]; ● = confirmed hit in this paper's assay): ●; hit in OL differentiation assay, Deshmukh [2]: ●
Nc1nc(N)c2nc(-c3ccccc3)c(N)nc2n1 [Triamterene]	0.9%	94.9%	96.5%	95.3%	-18.8%	–	–	–	–
CN(C)CCOC(c1ccc(Cl)cc1)c1ccccn1 (centres unmarked) [Carbinoxamine]	7.4%	92.8%	73.8%	57.6%	-28.8%	–	–	–	–
Nc1ccc(S(=O)(=O)c2ccc(N)cc2)cc1 [Dapsone]	-13.2%	–	–	–	-22.2%	101.9 % DMSO	96.3 % DMSO	99.0 % DMSO	–
OCc1cccnc1 [Nicotinyl Alcohol]	-9.3%	88.5%	90.1%	89.3%	-3.3%	–	–	–	–
CC(C)NCC(O)c1cc(O)cc(O)c1 (centres unmarked) [Metaproterenol]	–	–	–	–	–	89.2 % DMSO	91.6 % DMSO	91.1 % DMSO	activation at 2 µM [1, 9]: -0.7%; activation at 10 µM [1, 10]: 3.5%
CC(C)NCC(O)c1ccc(NS(C)(=O)=O)cc1 (centres unmarked) [Sotalol]	–	–	–	–	–	–	–	–	activation at 2 µM [1, 11]: -13.4%; activation at 10 µM [1, 12]: -22.5%; viability at 0.1 µM [3, 13]: 96.2%; viability at 1 µM [3, 14]: 89.5%; viability at 10 µM [3, 15]: 107%
O=C(O[C@@H]1C[C@@H]2C[C@H]3C[C@H](C1)N2CC3=O)c1c[nH]c2ccccc12 [Dolasetron]	4.6%	81%	81.8%	63.4%	18.1%	–	–	–	–
CC(C)NCC(O)c1ccc(O)c(O)c1 (centres unmarked) [Isoproterenol]	-19.5%	–	–	–	-148%	95.1 % DMSO	94.6 % DMSO	67.7 % DMSO	–
CC1(C)S[C@@H]2[C@H](NC(=O)Cc3ccccc3)C(=O)N2[C@H]1C(=O)O [Penicillin G]	-9.8%	107%	102%	114%	1.4%	–	–	–	–
O=C(NCCO[N+](=O)[O-])c1cccnc1 [Nicorandil]	14.7%	92.6%	85.6%	82.2%	3.2%	–	–	–	–
Cn1cnc([N+](=O)[O-])c1Sc1ncnc2nc[nH]c12 [Azathioprine]	–	–	–	–	–	90.4 % DMSO	91.6 % DMSO	63.6 % DMSO	activation at 2 µM [1, 9]: -21.2%; activation at 10 µM [1, 10]: -94.3%
NC1CCN(c2nc3c(cc2F)c(=O)c(C(=O)O)cn3-c2ccc(F)cc2F)C1 (centres unmarked) [Tosufloxacin]	–	–	–	–	–	–	–	–	activation at 2 µM [1, 11]: -17.9%; activation at 10 µM [1, 12]: -6.5%; viability at 0.1 µM [3, 13]: 95.4%; viability at 1 µM [3, 14]: 104%; viability at 10 µM [3, 15]: 92.2%
